Reference: patent US8569379B2 (Teva Pharmaceutical Industries Ltd., priority 2010, dated 2013)
Where two headings read alike, the source gives them in different places.

Assays:
[1] = test system: Wild type (WT) mice; details: strong intensity
Excerpt: (§1) The experiment was further subdivided into two levels of odor intensity:
(§2) Light intensity: two days of odor impregnation
(§3) Strong intensity: seven days of odor impregnation
(§4) The testing parameter was percentage of time of sniffing novel odor out of total time of sniffing.

[2] = test system: alpha-synuclein over-expressing (mutants) mice (Thy1-aSyn)
Excerpt: (§5) Transgenic mice overexpressing alpha-synuclein under the Thy1 promoter (Thy1-aSyn) have high levels of alpha-synuclein expression throughout the brain but no loss of nigrostriatal dopamine neurons up to 8 months. […] Overexpression of alpha-synuclein is sufficient to cause olfactory deficits in mice similar to that observed in patients with PD (2).
as §1, §2, §3, §4

[3] = test system: Wild type (WT) mice; details: for Time of exploration: novel object; for Time of exploration / % Time exploring novel object: WT mice receiving rasagiline, individual mice, Mean row = group mean (n = 9); for % Time exploring novel object: out of total time of the trial
Excerpt: (§6) The testing parameters were percentage of time exploring the novel object out of total time of the trial.

[4] = test system: alpha-synuclein over-expressing (mutants) mice (Thy1-aSyn); remark: listed apart in the source
Excerpt: Transgenic mice overexpressing alpha-synuclein under the Thy1 promoter (Thy1-aSyn) have high levels of alpha-synuclein expression throughout the brain but no loss of nigrostriatal dopamine neurons up to 8 months. […] Overexpression of alpha-synuclein is sufficient to cause olfactory deficits in mice similar to that observed in patients with PD (2). […] The objective was to determine whether the odor discrimination deficit was specific to the olfactory function (FIG. 7A). The testing parameters was percentage of time exploring the novel object/odor out of total time of exploration.

[5] = test system: Wild type (WT) mice; details: WT mice receiving rasagiline, group mean, n = 18
Excerpt: In this experiment, lemon odor served as a familiar odor (F), and lime—as a novel odor (N) (FIG. 4A). Mice capable of discriminating between the odors will spend more time sniffing the new odor. The testing parameter was percentage of time of sniffing novel odor out of total time of sniffing.

[6] = test system: alpha-synuclein over-expressing (mutants) mice (Thy1-aSyn); remark: listed apart in the source
Excerpt: as §5, §6

[7] = test system: alpha-synuclein over-expressing (mutants) mice (Thy1-aSyn); remark: listed apart in the source
Excerpt: Transgenic mice overexpressing alpha-synuclein under the Thy1 promoter (Thy1-aSyn) have high levels of alpha-synuclein expression throughout the brain but no loss of nigrostriatal dopamine neurons up to 8 months. […] Overexpression of alpha-synuclein is sufficient to cause olfactory deficits in mice similar to that observed in patients with PD (2). […] In this experiment, lemon odor served as a familiar odor (F), and lime—as a novel odor (N) (FIG. 4A). Mice capable of discriminating between the odors will spend more time sniffing the new odor. The testing parameter was percentage of time of sniffing novel odor out of total time of sniffing.

[8] = test system: alpha-synuclein over-expressing (mutants) mice (Thy1-aSyn); details: α-syn mutants receiving rasagiline; group mean, n = 19
Excerpt: as §5
(§7) The time periods that mice spent sniffing lemon and lime were compared. The testing parameters were percentage of time of sniffing lemon out of total time of sniffing and percentage of time of sniffing lime out of total time of sniffing.

[9] = test system: Wild type (WT) mice; details: WT mice receiving rasagiline; group mean, n = 18
Excerpt: as §7

[10] = test system: Wild type (WT) mice
Excerpt: (§8) The underlying principle was that if mice would spend less time sniffing the odor at T2 (second exposure to the odor) their short term olfactory memory is intact. The testing parameter was percentage of time of sniffing at T2, calculated as time of sniffing at T2 out of total time of sniffing at T1 (first exposure) & T2.

[11] = test system: alpha-synuclein over-expressing (mutants) mice (Thy1-aSyn); details: α-syn mutants; in particular at the 1.5 min interval
Excerpt: as §5, §8

[12] = test system: transgenic mouse models for the study of olfactory loss
Excerpt: (Lane et al., “Development of transgenic mouse models for the study of human olfactory dysfunction”, Am J. Rhinol., 2005, May-June; 19(3):229-35.)

[13] = test system: Wild type (WT) mice; details: WT mice receiving rasagiline; group mean, n = 9
Excerpt: The objective was to determine whether the odor discrimination deficit was specific to the olfactory function (FIG. 7A).
The testing parameters was percentage of time exploring the novel object/odor out of total time of exploration.

[14] = test system: alpha-synuclein over-expressing (mutants) mice (Thy1-aSyn); remark: listed apart in the source
Excerpt: as §5
Odor detection threshold is the lowest concentration (dilution 10^−8; 10^−6; 10^−4 in the water) at which mice are able to detect a novel odor. Upon detection of a novel odor, mice will spend more time sniffing it. The detection threshold was measured as percentage of time sniffing novel odor out of total time of sniffing.

[15] = strong social odors, α-syn mutants receiving rasagiline, group mean, n = 20
[16] = α-syn mutants receiving rasagiline, group mean, n = 9
[17] = non-social odors, N = lime (novel)
[18] = non-social odors, N = lime (novel), α-syn mutants receiving rasagiline, group mean, n = 20

## C#CCN[C@@H]1CCc2ccccc21 [Rasagiline, R(+)-N-propargyl-1-aminoindan]
[1]
  discrimination of strong social odor: improves discrimination of strong social odor
[2]; [15]
  Time Sniffing F: 3.1
  Total time sniffing: 12.4
[2]; α-syn mutants, light intensity
  discrimination of light social odor: improves discrimination of light social odor
[2]; α-syn mutants, strong intensity
  discrimination of strong social odor: improves discrimination of strong social odor
[3]; WT mice
  effect on novel object exploration: no effect on novel object exploration
[3]; listed as Rasagilina
  Time of exploration: 100.0 s
  % Time exploring novel object: 33.3%
[3]; listed as Rasagilins
  Time of exploration: 115.1 s
  % Time exploring novel object: 38.4%
[4]; α-syn mutants
  novel object/odor discrimination ability: improves the discrimination ability of the mutants to substantially WT levels
[4]; [16]
  % Time exploring novel object: 92.2%
  Time of Exploration (s) Familiar object: 3.6 s
  Time of Exploration (s) Novel object: 48.7 s
  Time of Exploration (s) Total: 52.4 s
[5]; non-social odors lemon/lime
  Total time sniffing: 42.5
[5]; non-social odors, F = lemon (familiar)
  Time Sniffing F: 11.9
[5]; [17]
  % time sniffing N: 72.1%
  Time Sniffing N: 30.6
[6]; novel object, α-syn mutants receiving rasagiline, group mean, n = 11
  Time of exploration: 79.3 s
[6]; out of total time of the trial, α-syn mutants receiving rasagiline, group mean, n = 11
  % Time exploring novel object: 26.4%
[6]; α-syn mutants
  effect on novel object exploration: no effect on novel object exploration
[7]; non-social odors lemon/lime, α-syn mutants receiving rasagiline, group mean, n = 20
  Total time sniffing: 14.8
[7]; non-social odors, F = lemon (familiar), α-syn mutants receiving rasagiline, group mean, n = 20
  Time Sniffing F: 3.7
[7]; [18]
  % time sniffing N: 70.2%
  Time Sniffing N: 11.2
[7]; α-syn mutant mice, lemon (familiar) vs lime (novel)
  discrimination of two close non-social odors: improves discrimination of two close non-social odors
[8]
  % Time sniffing Lime: 52.6%
  Time of sniffing (s) Lemon: 6.1 s
  Time of sniffing (s) Lime: 8.7 s
  Time of sniffing (s) Total: 14.9 s
[9]
  % Time sniffing Lemon: 52.9%
  % Time sniffing Lime: 47.1%
  Time of sniffing (s) Lemon: 25.9 s
  Time of sniffing (s) Lime: 23.3 s
  Time of sniffing (s) Total: 49.2 s
[10]; ITI of 2 min
  short-term olfactory memory compared to WT-water: reduced short-term olfactory memory compared to WT-water
[10]; in particular at the 1.5 min interval
  effect on short term olfactory memory: positive effect on short term olfactory memory
[11]
  effect on short term olfactory memory: positive effect on short term olfactory memory
[12]; each of two transgenic mouse models
  treating the symptoms of olfactory dysfunction: effective in treating the symptoms of olfactory dysfunction
[12]; transgenic mouse models
  functional decline: effective in reducing the functional decline
  rate of progression of olfactory dysfunction: effective in reducing the rate of progression of olfactory dysfunction
[13]
  % Time exploring novel object: 96.2%
  Time of Exploration (s) Familiar object: 3.0 s
  Time of Exploration (s) Novel object: 85.0 s
  Time of Exploration (s) Total: 88.0 s
[14]; α-syn mutants with rasagiline, untreated mutants 10^−4, dilution in water
  odor threshold (lowest odor dilution detected): 10^6
[14]; α-syn mutants, odor concentration 10^−6
  odor detection ability: improved the odor detection ability of α-syn mutants
